Assay results from patent US20040127512A1, “Method of treating symptoms of non-constipated irritable bowel syndrome” (Bradley Pharmaceuticals, Inc., priority 2002, published 2004).

What was measured:
[1] = following oral administration; cited from earlier work
[2] = clinical study of oral methscopolamine bromide as antispasmodic medication in colonoscopy; format: in vivo; conditions: 10 mg oral one hour before colonoscopy; 25 patients; control subjects 30%
Experimental: A clinical study was undertaken with oral methscopolamine bromide as an antispasmodic medication in colonoscopy. The study comprised of 40 non-randomized patients. Thirty patients were given oral methscopolamine bromide prior to the procedure. […] The dose was increased to 10 mg for the following 25 patients. For the purpose of the study, in terms of spasm control a “success” was defined as a colonoscopy where there was no significant spasm on insertion and no intravenous Buscopan® was required. A failure was defined as the requirement of intravenous Buscopan® (antispasmodic). […] The study had both male and female patients.

[3] = in vivo; cited from earlier work

For `C[N+]1(C)[C@@H]2C[C@@H](OC(=O)[C@H](CO)c3ccccc3)C[C@H]1[C@@H]1O[C@@H]12` [methscopolamine bromide], the “time until drug effects appear” value [1] is listed as “about one”, the “patients with minimal or no spasm” value [2] is listed as 64% and the “ability to cross the blood-brain-barrier” value [3] is listed as “limited ability to cross the blood-brain-barrier”. The route of excretion [3] was “excreted primarily in the urine and bile, or as unabsorbed drug in feces”.
